# From patent US5877165A, “Boronated porhyrins and methods for their use” (priority 1997, dated 1999)
# Values joined by “and” are separate entries in the source; they are usually repeats but may differ in a detail not shown here. Equal entries are not always repeated. Where two headings read alike, the source gives them in different places.
# What was measured:
# [1] = tested on: KHJJ mammary carcinomas; experiment: Boron biodistribution, mice with KHJJ mammary carcinomas (Examples 4-7, Table 1); assay type: in vivo, BALB/c mice; settings: 6 hr after last i.p. injection; BPA 900 or NiTCP 160 μg/gbw; median (range); 900 mg/kg, 360 min
# Experimental: (§1) Female BALB/c mice (Taconic Farms, Germantown, N.Y.) (20-25 g) were implanted with either KHJJ or EMT-6 tumors. For KHJJ tumors, 1-3 mm^3 tumor fragments were implanted subcutaneously (s.c.) in the dorsal thorax of each mouse using an 18-gauge trocar. For EMT-6 tumors, 2.5×10^5 cells were implanted similarly using a 27-gauge needle. EMT-6 tumor cells were grown alternately in vivo and in vitro. Single-cell suspensions were prepared from mouse-grown tumors by trypsinization. These were grown in cell culture for several passages and then were frozen in 10% DMSO and stored in liquid nitrogen. Prior to implantation in mice, the cells were thawed and grown in tissue culture in Alpha-MEM with 10% FBS for several passages.
# (§2) Under deep halothane anesthesia leading to euthanasia, right ventricular blood was collected in Microtainer (Becton-Dickinson, Rutherford, N.J.) tubes containing EDTA for hematological analyses and boron assays of whole blood and in Microtainer™ tubes containing lithium heparin for chemical analyses and enzyme assays of blood plasma. Tumor, brain, fat, muscle, and liver tissues were sampled at necropsy for boron analyses.
# (§3) Direct current plasma-atomic emission spectroscopy [DCP-AES] (ARL/Fisons Model SS-7) was used (detection limit: 0.1 μg/ml). Samples (50-130 mg) were digested at 60° C. with sulfuric acid:nitric acid (1:1). Triton X-100 and water were added to give final concentrations of ≈50 mg tissue/ml, 15% total acid v/v and 5% Triton X-100 v/v. Fat and liver tissues were assayed for ^10 B by prompt-gamma spectroscopy (Fairchild, et al., 1986). The prompt-gamma measurements were multiplied by 5.0 to give the total boron concentrations due to the use of boron of natural isotope abundance in the syntheses of all boronated porphyrins reported.
# (§4) Seven mice having KHJJ mammary carcinomas were given one intraperitoneal (i.p.) injection of 900 μg/g body weight of the boron compound presently used for BNCT of malignant brain tumors, p-boronophenylalanine (BPA) complexed with fructose. BPA was prepared in accordance with procedure described in Coderre, et al., 1996 incorporated herein by reference in its entirety as if set forth in full.
# (§5) Mice were euthanized during the collection of blood while under Halothane anesthesia. At necropsy, the apparent states of structural integrity, consistency, color or abnormality, if any, of tissues were observed and tumor, brain and liver tissues were collected from each mouse for boron analysis.
# (§6) Eight mice having KHJJ mammary carcinomas were injected with the NiTCP solution in the amount of 160 μg NiTCP/g body weight (36 μgB/g body weight) in six i.p. injections over 20 hours.
# (§7) Six hours after the mice were last injected with NiTCP, mice were euthanized during the collection of blood while under Halothane anesthesia and right ventricular blood was collected from each mouse for hematological and chemical analysis without pooling the samples. At necropsy, the apparent states of structural integrity, consistency, color, or abnormality, if any, of tissues were observed and tumor, brain and liver tissues were collected from each mouse for boron analysis without pooling the samples.
# (§8) Seven mice having KHJJ mammary carcinomas were injected with the NiTCP solution in the amount of 160 μg NiTCP/g body weight (36 μgB/g body weight) in six i.p. injections over 20 hours.
# as §7, with “Sixteen hours” for “Six hours”, “were” for “were last”, “boron analysis. […]” for “boron analysis without pooling the samples.”
# [2] = as above; assay type: in vivo, BALB/c mice; settings: mouse, ip, 900 mg/kg, 6 hr after last i.p. injection, BPA 900 or NiTCP 160 μg/gbw, median (range)
# Experimental: as §1, §2, §3, §4, §5, §6, §7, §8
# as §7, with “Sixteen hours” for “Six hours”, “were” for “were last”, “boron analysis. […]” for “boron analysis without pooling the samples.”
# [3] = tested on: EMT-6 tumors; experiment: Experiment IV: boron concentrations in tissues, mice bearing EMT-6 tumors (Table 10); assay type: in vivo, BALB/c mice; settings: 90 hrs after last of 5 ip CuTCP (160 μg/gbw); BPA (837 μg/gbw) 1 ip 6 hr before euthanasia; 836 mg/kg
# Experimental: (§9) Lipophilic porphyrins 1, 2, 4, 5, and 6 were injected as emulsions in either 3% or 9% CRM and either 6% or 18% PRG with saline as previously described in Example 2 above. Water soluble porphyrins 3 and 7 were dissolved in saline. BPA was solubilized as a fructose complex.
# (§10) Female BALB/c mice (from Taconic Farms, Germantown, N.Y.) (20-25 g) were implanted with either KHJJ or EMT-6 tumors according to the procedure described in Example 3A above.
# as §2
# (§11) In Experiment IV, samples of BPA (836 μg/gbw), CuTCP (160 μg/gbw) and a combination of both were tested in mice with EMT-6 tumors. BPA was given in a single i.p. injection and mice were euthanized 6 hours later. CuTCP was given in 5 i.p. injections over 28 hours and mice were euthanized 90 hrs after the last injection. The group receiving both CuTCP and BPA were injected with CuTCP five times over 28 hours as was the CuTCP-only group and then with a single i.p. injection of BPA 6 hours prior to euthanasia which was 90 hours after the last injection of CuTCP.
# (§12) Hematological, chemical and enzymatic tests were carried out as described in Example 3 above. Nonparametric statistical analyses were carried out using the Wilcoxon Two-Sample Test in accordance with procedures described in Slatkin, D.N., 1995. Boron analyses were conducted in accordance with the procedure described in Example 3 above. Fat and liver tissues were assayed for ^10 B by prompt-gamma spectroscopy as described in Fairchild, et al., 1986. These measurements were multiplied by 5.0 to give total boron concentrations due to the use of boron of natural isotope abundance in the syntheses of all boronated porphyrins reported.
# [4] = as above; assay type: in vivo, BALB/c mice; settings: mouse, ip, 837 mg/kg, BPA fructose complex, 6 hr, tumor model not restated
# Experimental: as §9, §10, §2, §11, §12
# [5] = Hematological, enzymatic and chemical blood analyses and weight change, mice with KHJJ mammary carcinomas (Examples 4-7, Table 1); assay type: in vivo, BALB/c mice; settings: NiTCP 160 or BPA 900 μg/gbw; 6-78 hr
# Experimental: as §1, with “passages. […]” for “passages.”
# Levels of glucose [GLU], blood urea nitrogen [BUN], blood creatinine [BCR], alanine transaminase [ALT], aspartate transaminase [AST], alkaline phosphatase [ALP], total protein [TPR], albumin [ALB], and creatine phosphokinase [CPK] were determined in blood plasma using a Cobas Fara II microanalysis system. Blood platelets [PLT] and white blood cells [WBC] were counted using a Serono-Baker System 9000 automated hematology microanalyzer. […]
# [6] = clinical BNCT (Coderre, et al., 1997); cited from earlier work
# [7] = Overall ranking of boronated porphyrins for BNCT guided by biodistribution and toxicity tests in mice (Table 11)
# Experimental: The higher the numerical value, the better the performance of that porphyrin for that property. […] Although VCDP was able to deliver therapeutic amounts of boron to tumor, such side effects such as thrombocytopenia, which was induced within 3 hours after injections, weight loss, and the altered hepatic enzymes were serious enough to rank VCDP considerably behind the TCP's and the TCP-H's (Miura et al., 1992). In addition, the 80-hour drug administration period and the 90-hour blood clearance period are of great inconvenience. Moreover, this 4-day difference between the VCDP and the TCP (or TCP-H) dose and clearance schedules would translate into a 4-day greater delay between initiation of drug administration and neutron irradiation which would allow greater tumor growth to occur.
# […]
# […]
# [8] = Toxicity testing of NiTCP, MnTCP and CuTCP in normal mice (Example 13, Table 3); assay type: in vivo, BALB/c mice; settings: 4 days after last of 6 ip injections
# Experimental: Levels of glucose [GLU], blood urea nitrogen [BUN], blood creatinine [BCR], alanine transaminase [ALT], aspartate transaminase [AST], alkaline phosphatase [ALP], total protein [TPR], albumin [ALB], and creatine phosphokinase [CPK] were determined in blood plasma using a Cobas Fara II microanalysis system. Blood platelets [PLT] and white blood cells [WBC] were counted using a Serono-Baker System 9000 automated hematology microanalyzer.
# Compounds prepared as in Example 1B and 1C were formulated with 6% Cremophor EL [CRM] and 12% propylene glycol [PrG] in saline. Total doses of MnTCP and CuTCP of 174 and 223 μg/g body weight, respectively, were administered to normal BALB/c mice. Each mouse was given 6 intraperitoneal [ip] injections over a period of 32 hours. Mice were euthanized 4 days after the last injection and chemical, enzymatic and hematological analyses of their blood were compared to those of similar mice given NiTCP at a dose of 252 μg/g body weight.
# [9] = tested on: 9L gliosarcomas; set-up: species or system Fischer 344 rats; settings: rat, in vivo, iv
# Experimental: 2C. Preparation of CuTCP and CuTCP-H Solution for Rat Studies
# (§13) CuTCP-H as prepared in Example 1D was formulated with 9% CRM and 18% PrG to form a solution to which saline was added dropwise to yield 3.34 mg/ml of CuTCP and […] CuTCP-H, respectively. The resulting total doses were 215 mg/kg body weight for CuTCP and 149 mg/kg body weight for CuTCP-H. These solutions were then utilized for toxicity and biodistribution experiments in rats.
# as §3
# Male Fischer 344 rats each bearing 4 subcutaneous 9L gliosarcomas were given 210-219 mg CuTCP/kg body wt by 48-h iv infusion. Tumor and blood were sampled at 0, 1, 2, and 3 days after the end of infusion for boron analyses and blood for toxicity. Rats were euthanized on day 3 and other organs were analyzed for boron uptake.
# [10] = tested on: 9L gliosarcomas; set-up: species or system Fischer 344 rats; settings: rat, in vivo
# Experimental: as §13, §3
# CuTCP-H (146-152 mg/kg body weight) was given to four Fischer 344 rats each bearing four subcutaneous 9L gliosarcomas. A solution of 3.34 mg CuTCP-H/mL, in 9% CRM and 18% PrG, was given to rats by 48-hour i.v. infusion in a total volume of 9.6 mL.
molecule,measurement,setting,value
"N[C@@H](Cc1ccc(B(O)O)cc1)C(=O)O [BPA, p-boronophenylalanine]",Boron Concentration: Tumor,[1],≈ 14 μg B/g
same,concentration at 6 h,"[2]; blood, read-out: Boron Concentration: Blood",4600 ng/g
same,concentration at 6 h,"[2]; brain, read-out: Boron Concentration: Brain",7200 ng/g
same,concentration at 6 h,"[2]; tumor, read-out: Boron Concentration: Tumor",13800 ng/g
same,"Boron concentration, Blood",[3],2.0 (1.2-3.6) μg B/g
same,"Boron concentration, Brain",[3],8.1 (5.9-9.6) μg B/g
same,"Boron concentration, Fat",[3],0.4 (0-1.8) μg B/g
same,"Boron concentration, Liver",[3],2.1 (0.1-3.1) μg B/g
same,"Boron concentration, Muscle",[3],3.8 (2.1-7.9) μg B/g
same,"Boron concentration, Tumor",[3],5.4 (3.5-23) μg B/g and 5.4 μg B/g
same,concentration at 6 h,"[4]; blood, read-out: Blood boron",2000 ng/g
same,concentration at 6 h,"[4]; brain, read-out: Brain boron, median",8000 ng/g
same,"toxicity, in words",[5],"undetectable, minimal, or negligible in every respect"
same,brain and blood boron concentrations relative to tumor,[6],approximately one-third that found in tumor
same,"chemical toxicity, in words",[6],not eliciting any chemical toxicity
Copper Tetracarboranylphenylporphyrin [CuTCP],Drug tolerance/deliverable boron (ranking),[7],4
same,Lipophilicity (ranking),[7],2
same,Tumor uptake (normalized) (ranking),[7],3
same,Tumor:Blood (ranking),[7],3
same,"toxicity / thrombocytopenia, in words",[8],little if any difference in toxicity
same,time to rapid and almost total clearance of boron in blood,[9],≤ 2 days
same,Boron concentration in tumor,"[9]; 215 mg/kg, 0 h",54-68 μg B/g
same,Boron concentration in tumor,"[9]; 215 mg/kg, 48 h",38-69 μg B/g
same,boron in cerebellum,"[9]; 215 mg/kg, 48 h",1.5 μg B/g
same,boron in cerebrum,"[9]; 215 mg/kg, 48 h",2.5 μg B/g
same,median boron in blood,"[9]; 215 mg/kg, 48 h",6 μg B/g
same,median boron in tumor,"[9]; 215 mg/kg, 48 h",55 μg B/g
same,"average boron concentration, cerebellum","[9]; 215 mg/kg, 72 h",1-2 μg B/g
same,"average boron concentration, cerebrum","[9]; 215 mg/kg, 72 h",1-2 μg B/g
Copper Tetracarboranylporphyrin Hydride [CuTCP-H],tumor:blood ratio (boron),[10]; 2880 min,16:1
same,"Boron concentration, Blood","[10]; iv, 149 mg/kg, 0 h",183 (160-205) μg B/g
same,"Boron concentration, Tumor","[10]; iv, 149 mg/kg, 0 h",45 (23-51) μg B/g
same,"Boron concentration, Blood","[10]; iv, 149 mg/kg, 24 h",62 (56-65) μg B/g
same,"Boron concentration, Tumor","[10]; iv, 149 mg/kg, 24 h",46 (35-52) μg B/g
same,"Boron concentration, Blood","[10]; iv, 149 mg/kg, 120 h",0.6 (0.3-0.7) μg B/g
same,"Boron concentration, Cerebellum","[10]; iv, 149 mg/kg, 120 h",2.8 (2.1-6.2) μg B/g
same,"Boron concentration, Cerebrum","[10]; iv, 149 mg/kg, 120 h",4.9 (2.2-6.9) μg B/g
same,"Boron concentration, Liver","[10]; iv, 149 mg/kg, 120 h",345 (336-408) μg B/g
same,"Boron concentration, Tumor","[10]; iv, 149 mg/kg, 120 h",31 (23-55) μg B/g
Manganese Tetracarboranylphenylporphyrin [MnTCP],"toxicity / thrombocytopenia, in words",[8],little if any difference in toxicity
